In US4178442A, “Novel cinnamoyles piperazines and homopiperazines, the method of preparing them and their application in therapeutics” (Delalande S. A., priority 1977, dated 1979):
Counter-ions that a name gives are not always drawn. Like-named read-outs stand apart in the source and are kept apart here.

How the values were obtained:
anaesthetized dog [1] = test: Activity on the cerebral circulation, anaesthetized dog; type: in vivo; conditions: for change in vivo at 5 mg/kg / change in vivo at 2.5 mg/kg: Canis lupus familiaris, iv
Procedure: The activity on the cerebral circulation was tested on an anaesthetized dog (sodium pentobarbital 30 mg/kg/i.v.). The vertebral artery flow was measured by means of an electromagnetic perivascular or ultrasonic Doppler effect probe. The intracerebral vascular resistance was estimated by the back pressure of the internal carotid artery. […] The increase in the extraction of cerebral oxygen was estimated by the following equation:(A-V)/A in which: A represents the volume of oxygen in the arterial blood (% volume) measured by hemoreflectometry (KIPP and ZONEN's apparatus) and quantity determination of the haemoglobin (DRABKIN's method). V represents the volume of oxygen in the cerebral venous blood (internal maxillary vein). […] It should be noted that the compounds tested were injected intravenously (rapid injection).

anaesthetized dog [2] = test: Antiangorous activity on anaesthetized dog: consumption of oxygen in the left ventricule and cardiac effort (KATZ's index); type: in vivo; conditions: for inhibition in vivo at 2.5 mg/kg / inhibition in vivo at 0.625 mg/kg / inhibition in vivo at 0.12 mg/kg / inhibition in vivo at […] / inhibition in vivo at 2.3 mg/kg: Canis lupus familiaris, iv; for inhibition in vivo at […]: 0.15 mg/kg i.v. slow perfusion
Outline: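 Katz index taken as mean arterial pressure multiplied by ECG (D2) heart rate, and myocardial O2 use as coronary sinus flow via modified Morawitz cannula times coronary arteriovenous O2 difference. Animals: pentobarbital-anaesthetized dogs (30 mg/kg i.v.), test compounds infused slowly intravenously.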

in vivo = conditions: for LD50: read-out: Toxicity: LD50; for mortality: read-out: Toxicity (Mortality)
Description: *LD50 or percentage of mortality which is given between brackets

[3] = dog, 5 mg/kg i.v. rapid injection, read-out: Internal carotid artery back pressure
[4] = dog, 5 mg/kg i.v. rapid injection, read-out: Systemic average arterial pressure
[5] = dog, 5 mg/kg i.v. rapid injection, read-out: Vertebral artery flow
[6] = dog, 5 mg/kg i.v. rapid injection
[7] = 2.5 mg/kg i.v. slow perfusion, read-out: Diminution in consumption of O2
[8] = 2.5 mg/kg i.v. slow perfusion, read-out: Diminution in the cardiac effort (IK)
[9] = dog, 2,5 mg/kg i.v. rapid injection
[10] = 0.625 mg/kg i.v. slow perfusion

C=CCc1ccccc1OCC(O)CN1CCN(C(=O)/C=C/c2cc(OC)c(OC)c(OC)c2)CC1 (stereo not shown) [760 518]
change in vivo at 5 mg/kg (anaesthetized dog [1]; [3]): -48%
change in vivo at 5 mg/kg (anaesthetized dog [1]; [4]): -15%
change in vivo at 5 mg/kg (anaesthetized dog [1]; [5]): 180%
Internal carotid artery back pressure: in time (anaesthetized dog [1]; [6]): 5 min
Systemic average arterial pressure: in time (anaesthetized dog [1]; [6]): 5 min
Vertebral artery flow: in time (anaesthetized dog [1]; [6]): 5 min

COc1cc(/C=C/C(=O)N2CCCN(CC(O)COc3ccccc3)CC2)cc(OC)c1OC (stereo not shown) [760 388]
change in vivo at 5 mg/kg (anaesthetized dog [1]; [3]): -65%
change in vivo at 5 mg/kg (anaesthetized dog [1]; [4]): -44%
change in vivo at 5 mg/kg (anaesthetized dog [1]; [5]): 225%
Internal carotid artery back pressure: in time (anaesthetized dog [1]; [6]): 50 min
Systemic average arterial pressure: in time (anaesthetized dog [1]; [6]): 50 min
Vertebral artery flow: in time (anaesthetized dog [1]; [6]): 50 min

COc1cc(/C=C/C(=O)N2CCN(CC(O)CN(C)c3ccccc3)CC2)cc(OC)c1OC (stereo not shown) [770 495, 1-(3-N-methylanilino-2-hydroxy)propyl-4-(3,4,5-trimethoxycinnamoyl)piperazine, hydrated oxalate]
Diminution in consumption of O2: in time (anaesthetized dog [2]; 2.5 mg/kg i.v. slow perfusion): 45 min
Diminution in the cardiac effort (IK): in time (anaesthetized dog [2]; 2.5 mg/kg i.v. slow perfusion): 30 min
inhibition in vivo at 2.5 mg/kg (anaesthetized dog [2]; [7]): 74%
inhibition in vivo at 2.5 mg/kg (anaesthetized dog [2]; [8]): 43%
LD50 (in vivo; iv): 175 mg/kg
change in vivo at 2.5 mg/kg (anaesthetized dog [1]; dog, 2,5 mg/kg i.v. rapid injection, read-out: Internal carotid artery back pressure): -17%
change in vivo at 2.5 mg/kg (anaesthetized dog [1]; dog, 2,5 mg/kg i.v. rapid injection, read-out: Systemic average arterial pressure): -20%
Internal carotid artery back pressure: in time (anaesthetized dog [1]; [9]): 60 min
Systemic average arterial pressure: in time (anaesthetized dog [1]; [9]): 20 min
Vertebral artery flow: in time (anaesthetized dog [1]; [9]): 60 min
Increase of the extraction of cerebral oxygen (anaesthetized dog [1]; dog, 2,5 mg/kg i.v. rapid injection, (A-V)/A): +188%

COc1cc(/C=C/C(=O)N2CCN(CC(O)COc3cccc(OC)c3OC)CC2)cc(OC)c1OC (stereo not shown) [760 393]
Diminution in consumption of O2: in time (anaesthetized dog [2]; 2.5 mg/kg i.v. slow perfusion): 15 min
Diminution in the cardiac effort (IK): in time (anaesthetized dog [2]; 2.5 mg/kg i.v. slow perfusion): 15 min
inhibition in vivo at 2.5 mg/kg (anaesthetized dog [2]; [7]): 47%
inhibition in vivo at 2.5 mg/kg (anaesthetized dog [2]; [8]): 5%
LD50 (in vivo; iv): 319 mg/kg
change in vivo at 5 mg/kg (anaesthetized dog [1]; [3]): -62%
change in vivo at 5 mg/kg (anaesthetized dog [1]; [4]): -33%
change in vivo at 5 mg/kg (anaesthetized dog [1]; [5]): 150%
Systemic average arterial pressure: in time (anaesthetized dog [1]; [6]): 30 min
Vertebral artery flow: in time (anaesthetized dog [1]; [6]): < 2 min

CNC(=O)Nc1ccc(OCC(O)CN2CCN(C(=O)/C=C/c3cc(OC)c(OC)c(OC)c3)CC2)cc1 (stereo not shown) [770 056]
Diminution in consumption of O2: in time (anaesthetized dog [2]; [10]): 15 min
Diminution in the cardiac effort (IK): in time (anaesthetized dog [2]; [10]): 15 min
inhibition in vivo at 0.625 mg/kg (anaesthetized dog [2]; 0.625 mg/kg i.v. slow perfusion, read-out: Diminution in consumption of O2): 49%
inhibition in vivo at 0.625 mg/kg (anaesthetized dog [2]; 0.625 mg/kg i.v. slow perfusion, read-out: Diminution in the cardiac effort (IK)): 22%
LD50 (in vivo; iv): 160 mg/kg

COc1cc(/C=C/C(=O)N2CCN(CC(O)COCc3ccccc3)CC2)cc(OC)c1OC (stereo not shown) [770 276]
Diminution in consumption of O2: in time (anaesthetized dog [2]; 2.5 mg/kg i.v. slow perfusion): 23 min
inhibition in vivo at 2.5 mg/kg (anaesthetized dog [2]; [7]): 59%
LD50 (in vivo; iv): 248 mg/kg

COc1cc(/C=C/C(=O)N2CCN(CC(O)COc3ccc(NC(C)=O)c4c3OCCO4)CC2)cc(OC)c1OC (stereo not shown) [760 868]
Diminution in consumption of O2: in time (anaesthetized dog [2]; 0.12 mg/kg i.v. slow perfusion): 30 min
Diminution in the cardiac effort (IK): in time (anaesthetized dog [2]; 0.12 mg/kg i.v. slow perfusion): 30 min
inhibition in vivo at 0.12 mg/kg (anaesthetized dog [2]; 0.12 mg/kg i.v. slow perfusion, read-out: Diminution in consumption of O2): 33%
inhibition in vivo at 0.12 mg/kg (anaesthetized dog [2]; 0.12 mg/kg i.v. slow perfusion, read-out: Diminution in the cardiac effort (IK)): 18%
mortality (in vivo; iv, 215 mg/kg i.v.): 40%

CNC(=O)Nc1ccc(OCC(O)CN2CCN(C(=O)/C=C/c3cc(OC)c(OC)c(OC)c3)CC2)c2c1OCCO2 (stereo not shown) [770 077]
inhibition in vivo at […] (anaesthetized dog [2]; read-out: Diminution in consumption of O2): 44%
inhibition in vivo at […] (anaesthetized dog [2]; read-out: Diminution in the cardiac effort (IK)): 28%
mortality (in vivo; iv, 400 mg/kg i.v.): 0%

CNC(=O)Nc1ccc(OCC(O)CN2CCN(C(=O)/C=C/c3cc(OC)c(OC)c(OC)c3)CC2)c(OC)c1OC (stereo not shown) [770 992]
Diminution in consumption of O2: in time (anaesthetized dog [2]; 2.5 mg/kg i.v. slow perfusion): 40 min
Diminution in the cardiac effort (IK): in time (anaesthetized dog [2]; 2.5 mg/kg i.v. slow perfusion): 30 min
inhibition in vivo at 2.5 mg/kg (anaesthetized dog [2]; [7]): 77%
inhibition in vivo at 2.5 mg/kg (anaesthetized dog [2]; [8]): 36%
mortality (in vivo; iv, 400 mg/kg i.v.): 0%

COc1cc(/C=C/C(=O)N2CCN(CC(O)COc3cc(OC)c(OC)c(OC)c3)CC2)cc(OC)c1OC (stereo not shown) [760 506]
Diminution in consumption of O2: in time (anaesthetized dog [2]; 2.3 mg/kg i.v. slow perfusion): 60 min
Diminution in the cardiac effort (IK): in time (anaesthetized dog [2]; 2.3 mg/kg i.v. slow perfusion): 60 min
inhibition in vivo at 2.3 mg/kg (anaesthetized dog [2]; 2.3 mg/kg i.v. slow perfusion, read-out: Diminution in consumption of O2): 67%
inhibition in vivo at 2.3 mg/kg (anaesthetized dog [2]; 2.3 mg/kg i.v. slow perfusion, read-out: Diminution in the cardiac effort (IK)): 26%
LD50 (in vivo; iv): 182 mg/kg

COc1cc(/C=C/C(=O)N2CCN(CC(O)COc3ccc(C#N)c4c3OCCO4)CC2)cc(OC)c1OC (stereo not shown) [770 585]
Diminution in consumption of O2: in time (anaesthetized dog [2]; 2.5 mg/kg i.v. slow perfusion): 30 min
Diminution in the cardiac effort (IK): in time (anaesthetized dog [2]; 2.5 mg/kg i.v. slow perfusion): 30 min
inhibition in vivo at 2.5 mg/kg (anaesthetized dog [2]; [7]): 75%
inhibition in vivo at 2.5 mg/kg (anaesthetized dog [2]; [8]): 41%
mortality (in vivo; po, p.o.: 2000 mg/kg): 0%
